Measured values: patent EP0962457B1, “Piperidones as tachykinin antagonists” (Pfizer Limited, priority 1998, dated 1999)
Like-named read-outs stand apart in the source and are kept apart here.

Experiments:
human NK2 receptor = target: T1, human NK2 receptor (Homo sapiens, UniProt P21452); experiment: NK2 receptor affinity: competition with [3H]-NKA for binding to membranes of Chinese hamster ovary cells expressing the cloned human NK2 receptor; details: CHO cell membranes, 90 min, 25°C, read-out: NK2 receptor affinity (pKi) (converted)
T1 construct: expressed in transfected cells; host or cells: Chinese hamster ovary cells (membranes)
T1 sequence (P21452 1-398): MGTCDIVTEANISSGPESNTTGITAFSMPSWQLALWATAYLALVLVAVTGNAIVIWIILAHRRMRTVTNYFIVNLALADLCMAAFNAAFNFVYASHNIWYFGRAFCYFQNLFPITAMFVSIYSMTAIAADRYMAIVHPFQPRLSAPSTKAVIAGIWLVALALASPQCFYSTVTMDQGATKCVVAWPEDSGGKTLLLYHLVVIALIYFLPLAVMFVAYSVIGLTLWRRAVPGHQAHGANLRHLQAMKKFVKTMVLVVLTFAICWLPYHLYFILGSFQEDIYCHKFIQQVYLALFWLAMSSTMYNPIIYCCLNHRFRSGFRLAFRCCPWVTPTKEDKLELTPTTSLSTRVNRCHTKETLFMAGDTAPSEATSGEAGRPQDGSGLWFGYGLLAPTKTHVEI
Description: The affinity of the compounds of formula (I) and their salts for the human NK2 receptor can be tested in vitro by testing their ability to compete with [^3H]-NKA (neurokinin A) for binding to membranes prepared from Chinese hamster ovary cells expressing the cloned human NK2 receptor. In this method, washed Chinese hamster ovary cell membranes are prepared as described for the previous method where IM9 cells are used instead. The membranes are incubated (90 min, 25°C) with [^3H]-NKA and with a range of concentrations of the test compound. Non-specific binding was determined in the presence of 10µM NKA.
The affinity of the compounds of Tables 1 and 2 for the human NK2 receptor was tested in vitro by testing their ability to compete with [^3H]-NKA for binding to membranes prepared from Chinese hamster ovary cells expressing the cloned human NK2 receptor using the method set out on page 9.
(§1) In Tables 1 and 2 the "pKi" measurement is the negative logarithm of the molar affinity of the test compound for the receptor as determined in radioligand binding assays using standard protocols. A 1.0 log. unit difference in either the NK2 or NK3 receptor affinity figures corresponds to a 10-fold activity difference.

[1] = In vitro metabolic stability: disappearance half-life in human liver microsomes (HLM/37); type: in vitro ADME; details: human liver microsomes HLM/37, test compound 1µM, 37°C, 60 minutes, NADPH, read-out: Metabolic stability (t½)
Description: The in vitro metabolic stability of the compounds of the formula (I) and their salts can be tested by incubating samples for 1 hour at 37°C in the presence of a "moderate activity" (re. concentrations of cytochrome p450 enzymes present) human liver microsomal preparation (prepared from human liver homogenates). The samples were analysed by HPLC at regular intervals during this one hour period and the half-life (t½) determined (in minutes).
The metabolic stability of the compounds of Tables 1 and 2 was determined in vitro by the method described on page 10 according to the following experimental protocol.
Transplant-quality human liver tissue was obtained from the International Institute for the Advancement of Medicine (Exton, PA). The donors ranged in age from 26 to 65 years old and included 3 males and 3 females. Hepatic microsomes were prepared from individual human livers by the process of differential centrifugation. Briefly, the liver tissue was homogenised in 50mM Tris HCI (pH 7.4) containing 250mM sucrose and then centrifuged at 9,000G for 20 minutes to remove the cell debris and nuclear fraction. The supernatant layer was removed and further centrifuged at 105,000G for 60 minutes to pellet the microsomal fraction. […] The cytochrome P450 content was determined using the method of Omura, T., Sato, R., J. Biol. Chem., 239, 2379-2385 (1964) and the protein concentration was determined using the method of Lowry et al., J. Biol. Chem., 193, 265-275 (1951), with bovine serum albumin as the protein standard.
The metabolic activities of the 6 major drug metabolising cytochrome P450 enzymes were determined for HLM/37 and compared to values obtained from a bank of individual human livers (n = 19). […]
Aliquots (100µl) were removed from the incubation at 0, 3, 5, 10, 15, 20, 30, 45 and 60 minutes after the addition of NADPH. […] After centrifugation 150µl aliquots were removed and 120µl of each of these analysed by HPLC on a Hypersil HS C18 5µ column (50x4.6mm) with a mobile phase of methanol:water (90:10, by volume) containing 2mM ammonium acetate. […]

NK3 receptor = target: T2, NK3 receptor (Cavia porcellus, UniProt P30098); experiment: NK3 receptor affinity: inhibition of [3H]-senktide binding to membranes from guinea pig cortex; details: read-out: NK3 receptor affinity (pKi) (converted)
T2 construct: membranes from guinea pig cortex; from tissue; host or cells: guinea pig cortex membranes
T2 sequence (P30098 1-440): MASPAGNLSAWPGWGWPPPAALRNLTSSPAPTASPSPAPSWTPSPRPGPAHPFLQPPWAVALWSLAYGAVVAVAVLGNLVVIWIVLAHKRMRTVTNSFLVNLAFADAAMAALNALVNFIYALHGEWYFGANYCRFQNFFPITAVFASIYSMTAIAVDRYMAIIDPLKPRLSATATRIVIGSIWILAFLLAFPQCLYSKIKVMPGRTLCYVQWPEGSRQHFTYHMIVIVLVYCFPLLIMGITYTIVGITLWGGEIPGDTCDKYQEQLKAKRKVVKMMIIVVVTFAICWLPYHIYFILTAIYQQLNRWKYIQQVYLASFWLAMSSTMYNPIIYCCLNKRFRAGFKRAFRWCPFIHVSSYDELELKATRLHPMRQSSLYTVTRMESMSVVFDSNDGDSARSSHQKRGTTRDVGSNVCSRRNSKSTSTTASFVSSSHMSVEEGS
Description: The compounds of the formula (I) and their salts can be tested for NK3 receptor affinity, in vitro, by testing their ability to inhibit [^3H]-senktide binding to membranes from guinea pig cortex using the method of Guard, et al, Br.J.Pharmacol., 99, 767-773 (1990).
The compounds of Tables 1 and 2 were tested for NK3 receptor affinity, in vitro, by the method described on pages 9 and 10 by testing their ability to inhibit [^3H]-senktide binding to membranes from guinea pig cortex using the method of Guard, et al, Br.J.Pharmacol., 99, 767-773 (1990).
as §1

Row | Compound | Ki (human NK2 receptor) [nM] | half-life at 1 µM ([1]; pH 7.4) [h] | Ki (NK3 receptor) [nM] | half-life at 1 µM [1] [h]
1 | CS(=O)(=O)N1CCC(C2CN(CC[C@]3(c4ccc(Cl)c(Cl)c4)CCC(=O)N(CC4CC4)C3)C2)CC1 [Example 1, (5S)-1-(Cyclopropylmethyl)-5-(3,4-dichlorophenyl)-5-(2-[3-[1-(methylsulfonyl)-4-piperidinyl]-1-azetanyl]ethyl)tetrahydro-2(1H)-pyridinone] | 3.98 | 1.25 |  | 
2 | CS(=O)(=O)N1CCC(C2CN(CC[C@]3(c4ccc(Cl)c(F)c4)CCC(=O)N(CC4CC4)C3)C2)CC1 [Example 2] | 2.51 |  |  | > 2
3 | CS(=O)(=O)N1CCC(C2CN(CC[C@]3(c4ccc(Cl)c(Cl)c4)CCC(=O)N(CCC4CC4)C3)C2)CC1 [Example 3] |  |  |  | 0.45
4 | CS(=O)(=O)N1CCC(C2CN(CC[C@]3(c4ccc(Cl)c(Cl)c4)CCC(=O)N(Cc4ccccc4)C3)C2)CC1 [Example 4] | 1.26 |  |  | 

Further lines, with some results ahead:

Row | Ki (human NK2 receptor) [nM] | half-life at 1 µM ([1]; pH 7.4) [h] | Ki (NK3 receptor) [nM] | Compound | half-life at 1 µM [1] [h]
5 | 1 |  | 25.1 | CS(=O)(=O)N1CCC(C2CN(CC[C@]3(c4ccc(Cl)c(Cl)c4)CCC(=O)N(C4CCCC4)C3)C2)CC1 [Example 5] | 
6 | 20 |  | 5.01 | CS(=O)(=O)N1CCC(C2CN(CC[C@]3(c4ccc(Cl)c(Cl)c4)CCC(=O)N(CC4CCCCC4)C3)C2)CC1 [Example 6] | 
7 | 3.16 |  |  | CS(=O)(=O)N1CCC(C2CN(CC[C@]3(c4ccc(F)c(F)c4)CCC(=O)N(C4CCCCC4)C3)C2)CC1 [Example 7] | 
8 | 6.31 |  |  | CCS(=O)(=O)N1CCC(C2CN(CC[C@]3(c4ccc(Cl)c(Cl)c4)CCC(=O)N(CC4CC4)C3)C2)CC1 [Example 8, (5S)-1-(Cyclopropylmethyl)-5-(3,4-dichlorophenyl)-5-(2-[3-[1-(ethylsulfonyl)-4-piperidinyl]-1-azetanyl]ethyl)tetrahydro-2(1H)-pyridinone] | 
